Tests used:
Details in all cases: 48 h
SEM cells [1] = experiment: cell viability relative to DMSO control; higher = less cytotoxic
Procedure, shortened: (§1)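 Before seeding, each leukemia line was adapted for at least four passages in each medium. NOMO1 or SEM cells (500 cells/well) and P12-Ichikawa cells (1000 cells/well) went into 1536-well plates at 5 μl, then received library compounds in DMSO by pin dosing across 11 threefold concentrations, 47 μM to 0.79 nM. Readout was CellTiter-Glo One luminescence after 48 h at 37°C, and viability is given as a per-plate percentage of DMSO wells, with cell-free wells as background.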

NOMO1 [2] = experiment: AUC of viability dose-response curve (% viability x log10 dose units); higher = less sensitive
Procedure, shortened: (§2)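 Area under the curve was integrated by trapezoidal rule from a log-logistic fit of normalised viability, with curves exceeding full viability scaled and quality-control failures removed. The fit had four parameters over log10 doses. Viability came from CellTiter-Glo One luminescence, normalised per plate to DMSO and cell-free wells, after leukemia cells adapted to each medium (500 or 1000 cells/well, 1536-well plates) were exposed to library compounds in DMSO for 48 h at 37°C. The 11 threefold doses ran from 47 μM to 0.79 nM.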

SEM cells [3] = experiment: as above
Procedure, shortened: as §2

P12-Ichikawa [4] = experiment: as above
Procedure, shortened: as §2

NOMO1 [5] = experiment: cell viability relative to DMSO control; higher = less cytotoxic
Procedure, shortened: as §1

P12-Ichikawa [6] = experiment: as above
Procedure, shortened: as §1

CNC(=O)N1\N=C(\C2=CC=C(N)C=C2)C3=CC4=C(OCO4)C=C3CC1C (stereo unspecified)
cell viability [%], SEM cells [1]
Details | HPLM + 10% dialyzed FBS | RPMI 5 mM glucose + 10% FBS
0.000781 µM | 111 | 120
0.00234 µM | 113 | 134
0.00702 µM | 130 | 124
0.0211 µM | 121 | 145
0.0632 µM | 142 | 138
0.19 µM | 133 | 134
0.569 µM | 122 | 132
1.71 µM | 129 | 129
5.12 µM | 98.3 | 79.9
15.4 µM | 43.8 | 47.1
46.1 µM | 8.25 | 8.13

AUC of viability dose-response curve
Details | NOMO1 [2] | P12-Ichikawa [4] | SEM cells [3]
HPLM + 10% dialyzed FBS | 440 | 449 | 413
RPMI 5 mM glucose + 10% FBS | 451 | 447 | 400
RPMI 5 mM glucose + 10% dialyzed FBS | 449 | 449 | 392

COC1=CC=C2CN(C)CC[C@@]34\C=C/[C@H](O)C[C@@H]3OC1=C24
cell viability [%]
Details | NOMO1 [5] | P12-Ichikawa [6] | SEM cells [1]
HPLM + 10% dialyzed FBS, 0.000781 µM | – | – | 119
HPLM + 10% dialyzed FBS, 0.00234 µM | – | – | 113
HPLM + 10% dialyzed FBS, 0.00702 µM | – | – | 115
HPLM + 10% dialyzed FBS, 0.0211 µM | – | – | 27
HPLM + 10% dialyzed FBS, 0.0632 µM | – | – | 117
HPLM + 10% dialyzed FBS, 0.19 µM | – | – | 111
HPLM + 10% dialyzed FBS, 0.569 µM | – | – | 114
HPLM + 10% dialyzed FBS, 1.71 µM | – | – | 126
HPLM + 10% dialyzed FBS, 5.12 µM | – | – | 103
HPLM + 10% dialyzed FBS, 15.4 µM | – | – | 119
HPLM + 10% dialyzed FBS, 46.1 µM | – | – | 103
RPMI 5 mM glucose + 10% FBS, 0.000781 µM | 128 | – | –
RPMI 5 mM glucose + 10% FBS, 0.00234 µM | 124 | – | –
RPMI 5 mM glucose + 10% FBS, 0.00702 µM | 120 | – | –
RPMI 5 mM glucose + 10% FBS, 0.0211 µM | 112 | – | –
RPMI 5 mM glucose + 10% FBS, 0.0632 µM | 124 | – | –
RPMI 5 mM glucose + 10% FBS, 0.19 µM | 130 | – | –
RPMI 5 mM glucose + 10% FBS, 0.569 µM | 118 | – | –
RPMI 5 mM glucose + 10% FBS, 1.71 µM | 123 | – | –
RPMI 5 mM glucose + 10% FBS, 5.12 µM | 126 | – | –
RPMI 5 mM glucose + 10% FBS, 15.4 µM | 108 | – | –
RPMI 5 mM glucose + 10% FBS, 46.1 µM | 104 | – | –
RPMI 5 mM glucose + 10% dialyzed FBS, 0.000781 µM | 126 | 121 | 108
RPMI 5 mM glucose + 10% dialyzed FBS, 0.00234 µM | 121 | 124 | 111
RPMI 5 mM glucose + 10% dialyzed FBS, 0.00702 µM | 118 | 118 | 126
RPMI 5 mM glucose + 10% dialyzed FBS, 0.0211 µM | 119 | 117 | 25.3
RPMI 5 mM glucose + 10% dialyzed FBS, 0.0632 µM | 118 | 130 | 114
RPMI 5 mM glucose + 10% dialyzed FBS, 0.19 µM | 129 | 120 | 125
RPMI 5 mM glucose + 10% dialyzed FBS, 0.569 µM | 120 | 119 | 104
RPMI 5 mM glucose + 10% dialyzed FBS, 1.71 µM | 115 | 121 | 107
RPMI 5 mM glucose + 10% dialyzed FBS, 5.12 µM | 110 | 82.6 | 96.3
RPMI 5 mM glucose + 10% dialyzed FBS, 15.4 µM | 108 | 102 | 100
RPMI 5 mM glucose + 10% dialyzed FBS, 46.1 µM | 113 | 111 | 99.3

AUC of viability dose-response curve
Details | HPLM + 10% dialyzed FBS | RPMI 5 mM glucose + 10% FBS | RPMI 5 mM glucose + 10% dialyzed FBS
NOMO1 [2] | 437 | 468 | 451
P12-Ichikawa [4] | 449 | 456 | 454

C=CCO/N=C(/C[C@H]1O[C@@H]2O[C@]3(C)CC[C@H]4[C@H](C)CC[C@@H]([C@H]1C)[C@@]24OO3)[C@H]1O[C@@H]2O[C@]3(C)CC[C@H]4[C@H](C)CC[C@@H]([C@H]1C)[C@@]24OO3
AUC of viability dose-response curve
Details | NOMO1 [2] | P12-Ichikawa [4] | SEM cells [3]
HPLM + 10% dialyzed FBS | 347 | 397 | 350
RPMI 5 mM glucose + 10% FBS | 340 | 357 | 329
RPMI 5 mM glucose + 10% dialyzed FBS | 338 | 359 | 328

C[C@H]1O[C@H]([C@H](O)[C@@H]1O)N2\C=C(F)/C(=O)NC2=O
AUC of viability dose-response curve
Details | NOMO1 [2] | P12-Ichikawa [4] | SEM cells [3]
HPLM + 10% dialyzed FBS | 441 | 443 | 460
RPMI 5 mM glucose + 10% FBS | 460 | 440 | 454
RPMI 5 mM glucose + 10% dialyzed FBS | 444 | 442 | 436

COC(=O)N1CC2(CC2)C[C@H](C(=O)NO)[C@H]1C(=O)N1CCN(c2ccccc2)CC1
cell viability [%]
Details | P12-Ichikawa [6] | SEM cells [1]
HPLM + 10% dialyzed FBS, 0.000781 µM | 122 | 110
HPLM + 10% dialyzed FBS, 0.00234 µM | 133 | 128
HPLM + 10% dialyzed FBS, 0.00702 µM | 119 | 123
HPLM + 10% dialyzed FBS, 0.0211 µM | 125 | 116
HPLM + 10% dialyzed FBS, 0.0632 µM | 117 | 128
HPLM + 10% dialyzed FBS, 0.19 µM | 114 | 121
HPLM + 10% dialyzed FBS, 0.569 µM | 24.5 | 113
HPLM + 10% dialyzed FBS, 1.71 µM | 30.1 | 40.3
HPLM + 10% dialyzed FBS, 5.12 µM | 16.7 | 19.8
HPLM + 10% dialyzed FBS, 15.4 µM | 10.6 | 16.5
HPLM + 10% dialyzed FBS, 46.1 µM | 7.08 | 6.78
RPMI 5 mM glucose + 10% FBS, 0.000781 µM | 121 | –
RPMI 5 mM glucose + 10% FBS, 0.00234 µM | 132 | –
RPMI 5 mM glucose + 10% FBS, 0.00702 µM | 119 | –
RPMI 5 mM glucose + 10% FBS, 0.0211 µM | 129 | –
RPMI 5 mM glucose + 10% FBS, 0.0632 µM | 136 | –
RPMI 5 mM glucose + 10% FBS, 0.19 µM | 143 | –
RPMI 5 mM glucose + 10% FBS, 0.569 µM | 122 | –
RPMI 5 mM glucose + 10% FBS, 1.71 µM | 99.6 | –
RPMI 5 mM glucose + 10% FBS, 5.12 µM | 14.2 | –
RPMI 5 mM glucose + 10% FBS, 15.4 µM | 9.97 | –
RPMI 5 mM glucose + 10% FBS, 46.1 µM | 7.58 | –

AUC of viability dose-response curve
Details | HPLM + 10% dialyzed FBS | RPMI 5 mM glucose + 10% FBS | RPMI 5 mM glucose + 10% dialyzed FBS
NOMO1 [2] | 297 | 310 | 373
P12-Ichikawa [4] | 290 | 357 | 324

O=C(O)CCCc1c[nH]c2ccccc12
SEM cells [1], HPLM + 10% dialyzed FBS
Details | cell viability [%]
0.000781 µM | 111
0.00234 µM | 122
0.00702 µM | 130
0.0211 µM | 144
0.0632 µM | 105
0.19 µM | 113
0.569 µM | 102
1.71 µM | 124
5.12 µM | 138
15.4 µM | 131
46.1 µM | 97.9

AUC of viability dose-response curve
Details | HPLM + 10% dialyzed FBS | RPMI 5 mM glucose + 10% FBS | RPMI 5 mM glucose + 10% dialyzed FBS
P12-Ichikawa [4] | 468 | 431 | 452
SEM cells [3] | 468 | 441 | 431
